Legend:
[1] = biological target: T1, GST tagged LXRbeta LBD (ligand binding domain) (Homo sapiens, UniProt P55055); assay: LanthaScreen TR-FRET Liver X Receptor Coactivator Assay, LXR beta-LBD (co-activator recruitment; IP and % Emax relative to T0901317); format: biochemical; conditions: for EC50: Inflection Point of co-activator recruitment, LXR beta-LBD, TR-FRET; for Emax: efficacy at max dose in relation to reference T0901317, LXR beta-LBD, read-out: LXR beta actiivty at max dose (%)
T1 construct: purchased Invitrogen pv4658.pps
T1 sequence (P55055 222-460 limits assumed): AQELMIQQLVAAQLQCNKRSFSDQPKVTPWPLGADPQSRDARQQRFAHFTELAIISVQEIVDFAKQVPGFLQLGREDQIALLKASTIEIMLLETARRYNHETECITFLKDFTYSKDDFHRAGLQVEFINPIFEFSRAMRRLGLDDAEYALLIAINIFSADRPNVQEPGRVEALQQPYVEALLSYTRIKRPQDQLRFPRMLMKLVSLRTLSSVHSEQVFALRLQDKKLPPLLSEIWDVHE
Method in brief: (§1)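 Readout is time-resolved FRET between a terbium anti-GST antibody bound to the tagged LBD and a fluorescein-labelled coactivator peptide recruited on ligand binding. Samples are incubated at room temperature before reading, and efficacy is expressed against T0901317.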

[2] = biological target: T2, GST tagged LXRalpha LBD (ligand binding domain) (Homo sapiens, UniProt Q13133); assay: LanthaScreen TR-FRET Liver X Receptor Coactivator Assay, LXR alpha-LBD (co-activator recruitment; IP and % Emax relative to T0901317); format: biochemical; conditions: for EC50 / LXR alpha IP (nM): Inflection Point of co-activator recruitment, LXR alpha-LBD, TR-FRET; for Emax: efficacy at max dose in relation to reference T0901317, LXR alpha-LBD, read-out: LXR alpha actiivty at max dose (%)
T2 construct: purchased Invitrogen pv4655
T2 sequence (Q13133 209-447 limits assumed): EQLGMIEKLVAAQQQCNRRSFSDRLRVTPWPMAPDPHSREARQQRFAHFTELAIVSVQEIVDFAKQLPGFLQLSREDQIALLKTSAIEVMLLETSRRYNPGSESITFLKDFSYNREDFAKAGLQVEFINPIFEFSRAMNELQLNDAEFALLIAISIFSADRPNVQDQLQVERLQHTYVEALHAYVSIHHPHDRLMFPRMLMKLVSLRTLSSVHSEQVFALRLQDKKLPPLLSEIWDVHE
Method in brief: as §1

Question: What does the source list for `CN(CC[C@@H]1CC12CCN(c1ccc(C(=O)NC3CC3)c(Cl)c1)CC2)C(=O)[C@](O)(c1ccccc1)C(F)(F)F` [Example 7-26, 2-chloro-N-cyclopropyl-4-((S)-1-(2-((R)-3,3,3-trifluoro-2-hydroxy-N-methyl-2-phenylpropanamido)ethyl)-6-azaspiro[2.5]octan-6-yl)benzamide]?
Answer: EC50 [1]: 1020 nM; Emax [1]: 31%; EC50 [2]: 6100 nM; Emax [2]: 32%

Question: Which EC50 [1] does the source give for `COc1cccc([C@@](O)(C(=O)N(C)CCCC2CCN(c3ccc(C(=O)N(C)CCn4cncn4)c(Cl)n3)CC2)C(F)(F)F)c1` [Example 2-14] here?
Answer: 83 nM

Question: And the Emax [1]?
Answer: 67%

Question: And the “LXR alpha IP (nM)” value [2]?
Answer: No IP

Question: And the Emax [2]?
Answer: 14%

Question: With `CN(C)C(=O)c1ccc(N2CCC(C)(CCCN(C)C(=O)[C@](O)(c3ccccc3)C(F)(F)F)CC2)nc1Cl` [Example 9-2, (R)-2-chloro-N,N-dimethyl-6-(4-methyl-4-(3-(3,3,3-trifluroo-2-hydroxy-N-methyl-2-phenylpropanamido)propyl)piper-idin-1-yl)nicotinamide] as the compound, how does the EC50 [1] read?
Answer: 18 nM

Question: And the Emax [1]?
Answer: 47%

Question: What about the EC50 [2] of the same compound?
Answer: 441 nM

Question: What about the Emax [2] of the same compound?
Answer: 21%

Question: How did the EC50 [1] turn out when `CN(C)C(=O)c1ccc(N2CCC(CCCN(C)C(=O)C(O)(c3cccc(O)c3)C(F)(F)F)CC2)nc1Cl` (stereo not drawn) [Example 1-45, 2-chloro-N,N-dimethyl-6-(4-(3-(3,3,3-trifluoro-2-hydroxy-2-(3-hydroxyphenyl)-N-methylpropanamido)propyl)piperidin-1-yl)nicotinamide] was run?
Answer: 45 nM

Question: What about the Emax [1] of the same compound?
Answer: 82%

Question: And the EC50 [2]?
Answer: 2510 nM

Question: And the Emax [2]?
Answer: 32%

Question: Which results are given for `CN(C)C(=O)c1ccc(N2CCC(CCCNC(=O)[C@](O)(c3cccc(O)c3)C(F)(F)F)CC2)nc1Cl` [Example 5-22, (R)-2-chloro-N,N-dimethyl-6-(4-(3-(3,3,3-trifluoro-2-hydroxy-2-(3-hydroxyphenyl)propanamido)propyl)piperidin-1-yl)nicotinamide]?
Answer: EC50 [1]: 1190 nM; Emax [1]: 101%; EC50 [2]: 10300 nM; Emax [2]: 31%

Question: Which results are given for `CN(C)C(=O)c1ccc(N2CCC(C)(CCCN(C)C(=O)[C@](O)(c3ccccc3)C(F)(F)F)CC2)cc1Cl` [Example 9-7, (R)-2-chloro-N,N-dimethyl-4-(4-methyl-4-(3-(3,3,3-trifluoro-2-hydroxy-N-methyl-2-phenylpropanamido)propyl)piper-idin-1-yl)benzamide]?
Answer: EC50 [1]: 78 nM; Emax [1]: 42%; EC50 [2]: 921 nM; Emax [2]: 19%

Question: How did the EC50 [1] turn out when `CNC(=O)c1ccc(N2CCC(CC3CC(NC(=O)[C@](O)(c4ccccc4)C(F)(F)F)C3)CC2)cc1Cl` (stereo partly drawn) [Example 11-3, (R)-2-chloro-N-methyl-4-(4-((3-(3,3,3-trifluoro-2-hydroxy-2-phenylpropanamido)cyclobutyl)methyl)piperidin-1-yl)benzamide] was run?
Answer: 508 nM

Question: What about the Emax [1] of the same compound?
Answer: 93%

Question: What about the EC50 [2] of the same compound?
Answer: 6010 nM

Question: What about the Emax [2] of the same compound?
Answer: 22%

Question: Which EC50 [1] does the source give for `CC(C)NC(=O)c1ccc(N2CCC3(CC2)C[C@@H]3CCN(C)C(=O)[C@](O)(c2ccccc2)C(F)(F)F)cc1Cl` [Example 7-12, 2-chloro-N-isopropyl-4-((R)-1-(2-((R)-3,3,3-trifluoro-2-hydroxy-N-methyl-2-phenylpropanamido)ethyl)-6-azaspiro[2.5]octan-6-yl)benzamide] here?
Answer: 79 nM

Question: And the Emax [1]?
Answer: 64%

Question: What about the EC50 [2] of the same compound?
Answer: 765 nM

Question: What about the Emax [2] of the same compound?
Answer: 47%

Question: For `COc1cccc([C@@](O)(C(=O)NC2CC(CC3CCN(c4ccc(C(=O)N(C)C)c(Cl)c4)CC3)C2)C(F)(F)F)c1` (stereo partly drawn) [Example 11-6, (R)-2-chloro-N,N-dimethyl-4-(4-((3-(3,3,3-trifluoro-2-hydroxy-2-(3-methoxyphenyl)propanamido)cyclobutyl)methyl)piperidin-1-yl)benzamide], which EC50 [1] is on record?
Answer: 561 nM

Question: What about the Emax [1] of the same compound?
Answer: 54%

Question: What about the “LXR alpha IP (nM)” value [2] of the same compound?
Answer: No IP

Question: And the Emax [2]?
Answer: 3%

Source: US10961215B2, “N-aryl and N-heteroaryl piperidine derivatives as liver X receptor beta agonists, compositions, and their use” (Merck Sharp & Dohme Corp., priority 2016, dated 2021)
